Reference: paper PMC5538713, “RORγt and RORα signature genes in human Th17 cells” (PLoS ONE, 2017)
Like-named read-outs stand apart in the source and are kept apart here.

What was measured:
Assay in all cases: Cerep selectivity panel
Type in all cases: binding
5HT2A (h) = target: T1, 5HT2A (h) (Homo sapiens, UniProt P28223); conditions: read-out: % Inhibition at 10µM
T1 construct: purchased Cerep
Protocol: (§1) Supplementary file pone.0181868.s003.docx: S3 Table Selectivity profile of RORγt inverse agonists A, B, C and D. Compounds were evaluated at 1 μM and 10 μM in a panel of assays against 50 receptors, ion channels and transporters (Profile service by Cerep Inc.). (DOCX) Click here for additional data file.
(§2) S3 Table. RORɣt inverse agonists A, B, C and D were evaluated at 1 µM and 10 µM in a panel of assays against 50 receptors, ion channels and transporters (Profile service by Cerep Inc.).

5HT3 (h) = target: T2, 5HT3 (h) (Homo sapiens, UniProt P46098); conditions: for inhibition at 1 µM: read-out: % Inhibition at 1µM; for inhibition at 10 µM: read-out: % Inhibition at 10µM
T2 construct: purchased Cerep
T2 sequence (P46098 24-478): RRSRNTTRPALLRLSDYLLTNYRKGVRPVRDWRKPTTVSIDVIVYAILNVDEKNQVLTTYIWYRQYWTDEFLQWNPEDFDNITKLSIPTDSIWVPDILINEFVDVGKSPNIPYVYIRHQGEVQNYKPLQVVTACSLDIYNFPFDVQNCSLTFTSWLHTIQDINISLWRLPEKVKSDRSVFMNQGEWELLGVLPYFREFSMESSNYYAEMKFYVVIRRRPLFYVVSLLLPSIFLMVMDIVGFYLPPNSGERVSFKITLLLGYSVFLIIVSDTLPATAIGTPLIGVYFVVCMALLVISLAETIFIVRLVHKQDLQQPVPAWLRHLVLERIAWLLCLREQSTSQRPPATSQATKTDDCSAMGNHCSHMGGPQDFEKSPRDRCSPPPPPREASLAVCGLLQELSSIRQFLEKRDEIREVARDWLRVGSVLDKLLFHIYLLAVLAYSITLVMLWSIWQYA
Protocol: as §1, §2

5HT5A (h) = target: T3, 5HT5A (h) (Homo sapiens, UniProt P47898); conditions: for inhibition at 1 µM: read-out: % Inhibition at 1µM; for inhibition at 10 µM: read-out: % Inhibition at 10µM
T3 construct: purchased Cerep
T3 sequence (P47898 whole entry): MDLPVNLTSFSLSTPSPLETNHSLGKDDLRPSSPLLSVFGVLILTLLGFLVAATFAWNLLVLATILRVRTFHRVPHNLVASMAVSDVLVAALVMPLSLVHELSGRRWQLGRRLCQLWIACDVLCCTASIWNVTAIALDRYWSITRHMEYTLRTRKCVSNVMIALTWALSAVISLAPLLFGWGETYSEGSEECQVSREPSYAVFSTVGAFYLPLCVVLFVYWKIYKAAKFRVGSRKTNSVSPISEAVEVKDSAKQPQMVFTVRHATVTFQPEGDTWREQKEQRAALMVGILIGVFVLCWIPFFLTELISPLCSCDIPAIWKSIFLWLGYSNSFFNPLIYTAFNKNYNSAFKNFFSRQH
Protocol: as §1, §2

Ab1 (h) = target: T4, Ab1 (h) (Homo sapiens, UniProt P08588); conditions: for inhibition at 1 µM: read-out: % Inhibition at 1µM; for inhibition at 10 µM: read-out: % Inhibition at 10µM
T4 construct: purchased Cerep
T4 sequence (P08588 whole entry): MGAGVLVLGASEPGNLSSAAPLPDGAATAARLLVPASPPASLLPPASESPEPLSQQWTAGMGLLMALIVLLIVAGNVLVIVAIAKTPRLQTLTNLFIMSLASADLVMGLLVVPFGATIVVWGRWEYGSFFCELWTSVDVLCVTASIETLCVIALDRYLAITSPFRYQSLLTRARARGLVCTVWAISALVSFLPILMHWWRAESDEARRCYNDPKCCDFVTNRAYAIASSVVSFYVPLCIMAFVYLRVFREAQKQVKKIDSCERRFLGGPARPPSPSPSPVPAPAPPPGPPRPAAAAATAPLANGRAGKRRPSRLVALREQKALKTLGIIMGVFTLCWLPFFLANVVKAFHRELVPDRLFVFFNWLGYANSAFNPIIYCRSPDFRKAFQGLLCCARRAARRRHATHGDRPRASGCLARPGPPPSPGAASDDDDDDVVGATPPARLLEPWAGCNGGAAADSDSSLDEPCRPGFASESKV
Protocol: as §1, §2

D1 (h) = target: T5, D1 (h) (Homo sapiens, UniProt P21728); conditions: for inhibition at 1 µM: read-out: % Inhibition at 1µM; for inhibition at 10 µM: read-out: % Inhibition at 10µM
T5 construct: purchased Cerep
T5 sequence (P21728 whole entry): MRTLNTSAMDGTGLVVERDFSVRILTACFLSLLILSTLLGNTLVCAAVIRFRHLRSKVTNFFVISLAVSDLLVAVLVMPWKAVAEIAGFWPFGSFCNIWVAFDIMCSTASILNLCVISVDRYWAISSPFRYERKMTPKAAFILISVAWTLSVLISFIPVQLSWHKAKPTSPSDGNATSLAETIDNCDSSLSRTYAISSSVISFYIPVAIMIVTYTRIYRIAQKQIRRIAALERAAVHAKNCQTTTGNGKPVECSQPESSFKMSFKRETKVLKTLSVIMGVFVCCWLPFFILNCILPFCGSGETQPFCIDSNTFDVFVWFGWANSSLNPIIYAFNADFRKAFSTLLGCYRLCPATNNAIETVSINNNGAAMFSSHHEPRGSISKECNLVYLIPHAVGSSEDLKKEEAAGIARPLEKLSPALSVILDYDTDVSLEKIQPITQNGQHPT
Protocol: as §1, §2

D2S (h) = target: T6, D2S (h) (Homo sapiens, UniProt P14416); conditions: for inhibition at 1 µM: read-out: % Inhibition at 1µM
T6 construct: purchased Cerep
T6 sequence (P14416 1-414 isoform P14416-2): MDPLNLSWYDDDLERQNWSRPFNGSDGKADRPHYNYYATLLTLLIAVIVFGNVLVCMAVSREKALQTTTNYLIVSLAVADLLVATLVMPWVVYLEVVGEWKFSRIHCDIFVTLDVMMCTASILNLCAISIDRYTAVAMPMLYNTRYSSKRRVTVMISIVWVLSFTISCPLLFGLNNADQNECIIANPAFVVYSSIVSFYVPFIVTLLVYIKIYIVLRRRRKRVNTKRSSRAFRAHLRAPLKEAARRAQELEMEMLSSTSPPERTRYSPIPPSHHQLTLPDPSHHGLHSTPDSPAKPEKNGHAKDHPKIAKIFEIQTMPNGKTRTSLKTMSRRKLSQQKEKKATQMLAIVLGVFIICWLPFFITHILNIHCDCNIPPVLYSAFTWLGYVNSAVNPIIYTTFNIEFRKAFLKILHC
Protocol: as §1, §2

H1 (h) = target: T7, H1 (h) (Homo sapiens, UniProt P35367); conditions: for inhibition at 10 µM: read-out: % Inhibition at 10µM
T7 construct: purchased Cerep
T7 sequence (P35367 whole entry): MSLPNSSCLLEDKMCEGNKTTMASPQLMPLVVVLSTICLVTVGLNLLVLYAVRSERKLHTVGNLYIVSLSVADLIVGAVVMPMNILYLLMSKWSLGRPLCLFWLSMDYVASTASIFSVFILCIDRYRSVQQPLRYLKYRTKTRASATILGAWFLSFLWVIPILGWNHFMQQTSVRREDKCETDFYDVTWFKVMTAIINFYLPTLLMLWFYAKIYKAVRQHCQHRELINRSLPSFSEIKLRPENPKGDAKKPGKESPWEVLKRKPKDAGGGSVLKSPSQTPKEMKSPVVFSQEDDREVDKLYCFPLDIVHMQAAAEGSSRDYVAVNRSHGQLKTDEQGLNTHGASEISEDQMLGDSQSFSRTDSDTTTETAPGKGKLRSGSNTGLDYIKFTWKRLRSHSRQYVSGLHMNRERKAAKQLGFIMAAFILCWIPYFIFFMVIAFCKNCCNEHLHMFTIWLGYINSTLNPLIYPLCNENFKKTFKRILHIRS
Protocol: as §1, §2

M3 (h) = target: T8, M3 (h) (Homo sapiens, UniProt P20309); conditions: for inhibition at 1 µM: read-out: % Inhibition at 1µM; for inhibition at 10 µM: read-out: % Inhibition at 10µM
T8 construct: purchased Cerep
T8 sequence (P20309 whole entry): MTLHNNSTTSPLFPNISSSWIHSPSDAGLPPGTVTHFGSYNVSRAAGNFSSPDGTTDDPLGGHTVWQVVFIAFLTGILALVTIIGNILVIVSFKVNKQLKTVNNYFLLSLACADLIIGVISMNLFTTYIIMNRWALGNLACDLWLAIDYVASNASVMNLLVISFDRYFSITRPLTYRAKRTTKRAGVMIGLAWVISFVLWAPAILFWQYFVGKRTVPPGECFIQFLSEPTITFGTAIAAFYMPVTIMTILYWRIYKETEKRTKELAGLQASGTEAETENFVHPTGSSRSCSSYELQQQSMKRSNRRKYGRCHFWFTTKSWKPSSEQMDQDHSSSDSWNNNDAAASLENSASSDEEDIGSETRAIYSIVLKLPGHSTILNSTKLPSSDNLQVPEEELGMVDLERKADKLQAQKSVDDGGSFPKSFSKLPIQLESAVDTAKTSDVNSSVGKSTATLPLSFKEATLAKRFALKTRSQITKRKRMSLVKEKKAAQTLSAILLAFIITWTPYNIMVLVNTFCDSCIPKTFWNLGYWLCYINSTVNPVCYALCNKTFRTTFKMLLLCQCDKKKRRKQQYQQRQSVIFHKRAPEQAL
Protocol: as §1, §2

MC4 (h) = target: T9, MC4 (h) (Homo sapiens, UniProt P32245); conditions: for inhibition at 10 µM: read-out: % Inhibition at 10µM
T9 construct: purchased Cerep
T9 sequence (P32245 whole entry): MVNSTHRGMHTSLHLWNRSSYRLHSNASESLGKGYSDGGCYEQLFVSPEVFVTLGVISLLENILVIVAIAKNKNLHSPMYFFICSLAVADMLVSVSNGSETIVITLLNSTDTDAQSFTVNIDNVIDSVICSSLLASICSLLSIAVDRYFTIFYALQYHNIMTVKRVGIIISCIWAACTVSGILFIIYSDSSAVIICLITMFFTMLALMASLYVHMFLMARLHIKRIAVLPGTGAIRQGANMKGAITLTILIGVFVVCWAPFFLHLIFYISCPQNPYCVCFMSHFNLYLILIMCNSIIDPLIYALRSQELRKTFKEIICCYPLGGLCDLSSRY
Protocol: as §1, §2

NE-T = target: T10, NE-T (Homo sapiens, UniProt P23975); conditions: for inhibition at 1 µM: read-out: % Inhibition at 1µM; for inhibition at 10 µM: read-out: % Inhibition at 10µM
T10 construct: purchased Cerep
Protocol: as §1, §2

NK2 (h) = target: T11, NK2 (h) (Homo sapiens, UniProt P21452); conditions: for inhibition at 1 µM: read-out: % Inhibition at 1µM; for inhibition at 10 µM: read-out: % Inhibition at 10µM
T11 construct: purchased Cerep
T11 sequence (P21452 1-398): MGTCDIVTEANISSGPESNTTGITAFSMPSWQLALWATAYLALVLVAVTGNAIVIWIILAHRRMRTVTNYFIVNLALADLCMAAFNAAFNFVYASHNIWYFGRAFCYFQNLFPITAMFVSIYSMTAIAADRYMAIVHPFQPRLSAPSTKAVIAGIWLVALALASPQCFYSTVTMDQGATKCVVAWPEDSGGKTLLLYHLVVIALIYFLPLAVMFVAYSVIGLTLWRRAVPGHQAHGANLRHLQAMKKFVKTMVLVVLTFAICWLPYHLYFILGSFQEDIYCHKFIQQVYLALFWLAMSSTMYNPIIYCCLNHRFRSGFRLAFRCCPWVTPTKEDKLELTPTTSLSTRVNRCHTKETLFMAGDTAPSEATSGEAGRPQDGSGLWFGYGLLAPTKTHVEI
Protocol: as §1, §2

OP1 (h) = target: T12, OP1 (h) (Homo sapiens, UniProt P41143); conditions: for inhibition at 1 µM: read-out: % Inhibition at 1µM; for inhibition at 10 µM: read-out: % Inhibition at 10µM
T12 construct: purchased Cerep
T12 sequence (P41143 whole entry): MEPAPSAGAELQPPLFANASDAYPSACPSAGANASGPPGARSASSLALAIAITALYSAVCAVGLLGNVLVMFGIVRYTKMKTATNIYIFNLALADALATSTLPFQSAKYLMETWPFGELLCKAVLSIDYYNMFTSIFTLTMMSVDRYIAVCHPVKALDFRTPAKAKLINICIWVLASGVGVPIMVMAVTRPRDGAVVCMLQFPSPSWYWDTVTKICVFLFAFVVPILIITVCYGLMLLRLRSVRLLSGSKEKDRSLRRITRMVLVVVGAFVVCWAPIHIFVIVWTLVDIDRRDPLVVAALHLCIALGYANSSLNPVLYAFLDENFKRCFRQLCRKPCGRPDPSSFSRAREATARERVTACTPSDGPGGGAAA
Protocol: as §1, §2

OP3 (h) = target: T13, OP3 (h) (Homo sapiens, UniProt P35372); conditions: for inhibition at 1 µM: read-out: % Inhibition at 1µM; for inhibition at 10 µM: read-out: % Inhibition at 10µM
T13 construct: purchased Cerep
Protocol: as §1, §2

ORL1 (h) = target: T14, ORL1 (h) (Homo sapiens, UniProt P41146); conditions: for inhibition at 1 µM: read-out: % Inhibition at 1µM; for inhibition at 10 µM: read-out: % Inhibition at 10µM
T14 construct: purchased Cerep
Protocol: as §1, §2

5-HT6 (h) = target: T15, 5-HT6 (h) (Homo sapiens, UniProt P50406); conditions: for inhibition at 10 µM: read-out: % Inhibition at 10µM
T15 construct: purchased Cerep
T15 sequence (P50406 whole entry): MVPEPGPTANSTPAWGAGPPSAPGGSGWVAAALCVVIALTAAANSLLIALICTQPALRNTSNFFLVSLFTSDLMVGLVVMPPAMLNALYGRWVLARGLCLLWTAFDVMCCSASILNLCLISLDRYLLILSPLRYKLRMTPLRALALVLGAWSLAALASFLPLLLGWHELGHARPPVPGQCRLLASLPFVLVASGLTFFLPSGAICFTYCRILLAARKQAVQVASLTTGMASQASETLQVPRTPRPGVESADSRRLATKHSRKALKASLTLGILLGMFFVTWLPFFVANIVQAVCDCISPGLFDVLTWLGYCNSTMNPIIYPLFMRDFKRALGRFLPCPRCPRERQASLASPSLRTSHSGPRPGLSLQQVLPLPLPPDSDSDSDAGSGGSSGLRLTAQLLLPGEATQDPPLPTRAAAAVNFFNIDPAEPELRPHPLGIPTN
Protocol: as §1, §2

5HT2B (h) = target: T16, 5HT2B (h) (Homo sapiens, UniProt P41595); conditions: for inhibition at 10 µM: read-out: % Inhibition at 10µM
T16 construct: purchased Cerep
Protocol: as §1, §2

A2A (h) = target: T17, A2A (h) (Homo sapiens, UniProt P29274); conditions: for inhibition at 1 µM: read-out: % Inhibition at 1µM; for inhibition at 10 µM: read-out: % Inhibition at 10µM
T17 construct: purchased Cerep
T17 sequence (P29274 whole entry): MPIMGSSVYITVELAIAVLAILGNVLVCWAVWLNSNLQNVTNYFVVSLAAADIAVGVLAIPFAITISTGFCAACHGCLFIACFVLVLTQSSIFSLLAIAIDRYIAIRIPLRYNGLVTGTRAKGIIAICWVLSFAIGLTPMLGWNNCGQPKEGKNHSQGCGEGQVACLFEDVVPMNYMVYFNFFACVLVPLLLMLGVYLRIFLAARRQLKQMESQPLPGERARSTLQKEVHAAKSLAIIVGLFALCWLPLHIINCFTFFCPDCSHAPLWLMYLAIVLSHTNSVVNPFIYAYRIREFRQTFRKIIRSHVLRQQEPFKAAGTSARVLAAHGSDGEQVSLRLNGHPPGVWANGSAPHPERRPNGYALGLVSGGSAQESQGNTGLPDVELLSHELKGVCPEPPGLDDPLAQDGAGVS
Protocol: as §1, §2

CXCR2 (h) = target: T18, CXCR2 (h) (Homo sapiens, UniProt P25025); conditions: read-out: % Inhibition at 10µM
T18 construct: purchased Cerep
T18 sequence (P25025 1-360): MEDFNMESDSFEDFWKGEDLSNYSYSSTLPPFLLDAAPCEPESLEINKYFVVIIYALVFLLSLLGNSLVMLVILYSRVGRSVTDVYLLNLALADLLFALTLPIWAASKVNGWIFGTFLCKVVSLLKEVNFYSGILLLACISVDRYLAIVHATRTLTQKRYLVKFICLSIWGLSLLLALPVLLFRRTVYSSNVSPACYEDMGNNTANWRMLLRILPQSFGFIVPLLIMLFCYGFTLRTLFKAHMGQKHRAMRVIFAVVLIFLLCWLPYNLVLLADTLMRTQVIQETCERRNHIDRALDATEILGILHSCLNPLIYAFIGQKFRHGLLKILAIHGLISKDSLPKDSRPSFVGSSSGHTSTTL
Protocol: as §1, §2

DA-T = target: T19, DA-T (Homo sapiens, UniProt Q01959); conditions: for inhibition at 1 µM: read-out: % Inhibition at 1µM; for inhibition at 10 µM: read-out: % Inhibition at 10µM
T19 construct: purchased Cerep
T19 sequence (Q01959 whole entry): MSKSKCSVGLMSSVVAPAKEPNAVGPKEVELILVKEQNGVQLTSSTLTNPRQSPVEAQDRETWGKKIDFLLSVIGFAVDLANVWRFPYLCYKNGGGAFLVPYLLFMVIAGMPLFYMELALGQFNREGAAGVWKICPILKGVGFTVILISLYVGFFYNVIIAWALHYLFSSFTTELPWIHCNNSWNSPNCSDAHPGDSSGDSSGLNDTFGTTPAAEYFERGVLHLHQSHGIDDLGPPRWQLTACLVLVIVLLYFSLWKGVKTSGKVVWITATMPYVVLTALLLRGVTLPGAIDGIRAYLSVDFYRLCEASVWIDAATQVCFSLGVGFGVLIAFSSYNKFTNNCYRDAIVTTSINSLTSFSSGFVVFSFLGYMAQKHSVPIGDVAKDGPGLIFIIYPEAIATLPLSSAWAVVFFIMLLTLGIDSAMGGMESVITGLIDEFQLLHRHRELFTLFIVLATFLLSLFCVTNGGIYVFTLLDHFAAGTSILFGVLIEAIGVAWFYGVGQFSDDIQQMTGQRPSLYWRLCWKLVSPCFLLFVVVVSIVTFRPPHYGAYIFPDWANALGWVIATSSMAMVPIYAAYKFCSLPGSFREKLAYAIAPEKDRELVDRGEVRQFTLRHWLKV
Protocol: as §1, §2

COc1nc2ccc([C@](O)(c3ccc(Cl)cc3)c3cncn3C)cc2c(Cl)c1Cc1ccc(-n2cccn2)cc1 [B] was tested, and the inhibition at 10 µM (5HT2A (h)) was 12%, the inhibition at 1 µM (5HT3 (h)) was 16% and the inhibition at 10 µM (5HT3 (h)) was 19%. It also gave an inhibition at 1 µM (5HT5A (h)) of 25%, an inhibition at 10 µM (5HT5A (h)) of 31% and an inhibition at 1 µM (Ab1 (h)) of 0%. The inhibition at 10 µM (Ab1 (h)) was 2%, the inhibition at 1 µM (D1 (h)) was 10% and the inhibition at 10 µM (D1 (h)) was 29%. The inhibition at 1 µM (D2S (h)) was 7%, the inhibition at 10 µM (H1 (h)) was 2% and the inhibition at 1 µM (M3 (h)) was 1%. The inhibition at 10 µM (M3 (h)) was 15%, the inhibition at 10 µM (MC4 (h)) was 6% and the inhibition at 1 µM (NE-T) was 21%. For the same molecule, the inhibition at 10 µM (NE-T) was 38%, the inhibition at 1 µM (NK2 (h)) was 9% and the inhibition at 10 µM (NK2 (h)) was 30%. It also gave an inhibition at 1 µM (OP1 (h)) of 6%, an inhibition at 10 µM (OP1 (h)) of 2% and an inhibition at 1 µM (OP3 (h)) of 3%. The inhibition at 10 µM (OP3 (h)) was 3%, the inhibition at 1 µM (ORL1 (h)) was 6% and the inhibition at 10 µM (ORL1 (h)) was 4%.

In the case of COc1nc2ccc([C@@](O)(c3ccccc3)C3CCN(C(C)=O)CC3)cc2c(Cl)c1Cc1ccc(-n2cccn2)cc1 [C], the inhibition at 1 µM (5-HT6 (h); read-out: % Inhibition at 1µM) is reported as 20%, the inhibition at 10 µM (5-HT6 (h)) is reported as 22% and the inhibition at 1 µM (5HT2B (h); read-out: % Inhibition at 1µM) is reported as 17.5%. For the same molecule, the inhibition at 10 µM (5HT2B (h)) was 1%, the inhibition at 10 µM (5HT3 (h)) was 18% and the inhibition at 1 µM (5HT5A (h)) was 13%. It also gave an inhibition at 10 µM (5HT5A (h)) of 23%, an inhibition at 1 µM (A2A (h)) of 18% and an inhibition at 10 µM (A2A (h)) of 21%. It also gave an inhibition at 10 µM (CXCR2 (h)) of 10%, an inhibition at 10 µM (D1 (h)) of 11% and an inhibition at 1 µM (D2S (h)) of 10%. It also gave an inhibition at 1 µM (DA-T) of 17%, an inhibition at 10 µM (DA-T) of 25% and an inhibition at 1 µM (H1 (h); read-out: % Inhibition at 1µM) of 10%. For the same molecule, the inhibition at 1 µM (M3 (h)) was 21%, the inhibition at 10 µM (M3 (h)) was 19% and the inhibition at 1 µM (MC4 (h); read-out: % Inhibition at 1µM) was 14%. It also gave an inhibition at 1 µM (NE-T) of 19%, an inhibition at 10 µM (NE-T) of 38% and an inhibition at 10 µM (NK2 (h)) of 19%. It also gave an inhibition at 1 µM (OP1 (h)) of 9%, an inhibition at 10 µM (OP1 (h)) of 11% and an inhibition at 1 µM (OP3 (h)) of 2%. It also gave an inhibition at 10 µM (OP3 (h)) of 15%.

Molecule COc1nc2ccc([C@@](O)(c3ccc(C)nc3C)c3cnnn3C)cc2c(Cl)c1Cc1ccc(C(F)(F)F)cc1 [compound A] has an inhibition at 10 µM (5-HT6 (h); 5-HT6 (h), 10 µM) of 10%, an inhibition at 10 µM (5HT2A (h); 5HT2A (h), 10 µM) of 27% and an inhibition at 10 µM (5HT2B (h); 5HT2B (h), 10 µM) of 43%. The inhibition at 1 µM (5HT3 (h); 5HT3 (h), 1 µM) was 7%, the inhibition at 10 µM (5HT3 (h); 5HT3 (h), 10 µM) was 29% and the inhibition at 1 µM (5HT5A (h); 5HT5A (h), 1 µM) was 7%. The inhibition at 10 µM (5HT5A (h); 5HT5A (h), 10 µM) was 84%, the inhibition at 1 µM (A2A (h); A2A (h), 1 µM) was 20% and the inhibition at 10 µM (A2A (h); A2A (h), 10 µM) was 5%. For the same molecule, the inhibition at 1 µM (Ab1 (h); Ab1 (h), 1 µM) was 0%, the inhibition at 10 µM (Ab1 (h); Ab1 (h), 10 µM) was 10% and the inhibition at 10 µM (CXCR2 (h); CXCR2 (h), 10 µM) was 12%. It also gave an inhibition at 1 µM (D1 (h); D1 (h), 1 µM) of 16%, an inhibition at 10 µM (D1 (h); D1 (h), 10 µM) of 48% and an inhibition at 1 µM (D2S (h); D2S (h), 1 µM) of 12%. For the same molecule, the inhibition at 10 µM (D2S (h); D2S (h), 10 µM, read-out: % Inhibition at 10µM) was 70%, the inhibition at 1 µM (DA-T; DA-T, 1 µM) was 38% and the inhibition at 10 µM (DA-T; DA-T, 10 µM) was 81%. For the same molecule, the inhibition at 10 µM (H1 (h); H1 (h), 10 µM) was 8%, the inhibition at 10 µM (M3 (h); M3 (h), 10 µM) was 63% and the inhibition at 10 µM (MC4 (h); MC4 (h), 10 µM) was 9%. It also gave an inhibition at 1 µM (NE-T; NE-T, 1 µM) of 44%, an inhibition at 10 µM (NE-T; NE-T, 10 µM) of 86% and an inhibition at 1 µM (NK2 (h); NK2 (h), 1 µM) of 7%. The inhibition at 10 µM (NK2 (h); NK2 (h), 10 µM) was 41%, the inhibition at 1 µM (OP1 (h); OP1 (h), 1 µM) was 9% and the inhibition at 10 µM (OP1 (h); OP1 (h), 10 µM) was 27%. It also gave an inhibition at 10 µM (OP3 (h); OP3 (h), 10 µM) of 17%, an inhibition at 1 µM (ORL1 (h); ORL1 (h), 1 µM) of 1% and an inhibition at 10 µM (ORL1 (h); ORL1 (h), 10 µM) of 10%.
